Measurements from publication PMC6696115, “Characterization of Antimicrobial, Antioxidant, and Leishmanicidal Activities of Schiff Base Derivatives of 4-Aminoantipyrine” (Molecules, 2019).
In brackets after ≈: the same amount, converted by molar mass.

Key:
[1] = DPPH radical scavenging assay; format: biochemical; settings: statement in words
[2] = test system: Enterococcus faecalis ATCC 29212; assay: antimicrobial serial microdilution, E. faecalis; format: cell-based; settings: Enterococcus faecalis, ATCC29212; serial microdilution, 37 °C, 24 h
[3] = test system: S. cerevisiae wild-type (W303 and BY4741 backgrounds); assay: drop test, wild-type yeast; format: cell-based, Saccharomyces cerevisiae; settings: 200 µg/mL, 48 h, 25 °C
Experimental: Since the Schiff bases have a limited solubility in dimethyl sulfoxide (DMSO), first, we tested the toxicity of DMSO against the selected microorganism. […] Wild-type cells from W303 background seem to be more resistant, and sensitivity is observed at around 4% DMSO.
Next, we wanted to evaluate the oxidative activity. To do this, drop test assays were performed with wild-type (W303 and BY4741 backgrounds) and sod1 (BY4741 background) yeast cells in the presence of 200 µg/mL of the analyzed Schiff bases (Figure 3). The SOD1 gene encodes superoxide dismutase 1, an enzyme with a major role in detoxifying ROS species generated during metabolism or because of environmental exposure. sod1 mutant cells are unprotected against oxidative agents, decreasing survival in their presence. […] Also, wild-type cells are shown as control, unaffected by the Schiff bases.
For the drop test with S. cerevisiae, wild-type strain (background W303), and wild type and sod1 mutant cells (background BY4741) were grown overnight in YPAD media until an optical density of 0.5 at 600 nm was reached (equivalent to 1 × 10^7 cells/mL). Three serial dilutions were prepared and 5 µL of each was spotted onto a plate (approximately 1 × 10^5, 1 × 10^4, 1 × 10^3, and 1 × 10^2 cells/spot). YPAD plates were supplemented with 200 µg/mL of each Schiff base, and one plate supplemented with 2% DMSO and one plate with YPAD without any drug were used as controls. Plates were incubated at 25 °C for 24, 48, and 72 h.

[4] = test system: S. cerevisiae wild type (BY4741); assay: growth inhibition (OD600) of wild-type yeast, oxidative effect; format: cell-based, Saccharomyces cerevisiae
Experimental: (§1) Next, we wanted to evaluate the oxidative activity. To do this, drop test assays were performed with wild-type (W303 and BY4741 backgrounds) and sod1 (BY4741 background) yeast cells in the presence of 200 µg/mL of the analyzed Schiff bases (Figure 3). The SOD1 gene encodes superoxide dismutase 1, an enzyme with a major role in detoxifying ROS species generated during metabolism or because of environmental exposure. sod1 mutant cells are unprotected against oxidative agents, decreasing survival in their presence.
(§2) (A) Drop test of serial dilution of yeast cell cultures (wild type from genetic background W303, wild type from genetic background BY4741, and sod1 mutant from genetic background BY4741) exposed to Schiff bases at 200 µg/mL. A control without drug and with 2% DMSO are included.
(§3) The bacterial inoculum was prepared by emulsifying overnight colonies from an agar medium in broth (Mueller–Hinton broth). The suspensions were adjusted to a final organism density of 5 × 10^5 colony former units (cfu)/mL. […] The emulsifying of A. niger cultures was done by pouring 5 mL of saline and 0.1% of polysorbate 80 over the Petri dishes. Then, 100 µL of this suspension were diluted in 5 mL of saline and adjusted to an optical density of 0.1 at 530 nm. For S. cerevisiae, fresh exponential YPAD (yeast extract 1%, peptone 2%, adenine 0.004%, […]) cultures were adjusted to an optical density of 0.5 at 600 nm, and then diluted to the equivalent of 1 × 10^4 cells/mL (10^−3 dilution). Stock solutions of Schiff bases were prepared by dissolving them in DMSO at 10 mg/mL. […] The range of concentrations used was empirically selected for each organisms and the Schiff base. Drug sensitivities were assayed by serial dilutions in 96-well plates as previously described. A row with media and cells but without drug was the positive control. The blank was done by preparing a row with media and drugs, but without cells. Plates were fitted with a tight lid before incubation to prevent desiccation. […] The minimum bactericidal concentration (MBC) and fungicidal concentration (MFC) were determined by spreading 100 µL of culture from each well onto a plate (Mueller–Hinton agar for bacteria, Sabouraud dextrose agar for fungi except S. cerevisiae, and YPAD for S. cerevisiae).

RAW 264.7 cells = assay: cell viability, MTT dye assay; format: cell-based, murine; settings: RAW 264.7, exposure to 400 µM, 48 h
Experimental: The specificity and selectivity for the pathogen target is a key point for any potential drug.
The medium was renewed once a week. The viability was determined using MTT (thiazolyl blue tetrazolium bromide) dye assay as described previously for leishmanicidal activity assessment, with some variations. Here, 5 × 10^4 cells/well in a final volume of 100 µL were deposited into a 96-well plate in triplicate. Saponin (2 and 4 mg/mL) and untreated cells were used as the positive control and negative control, respectively. Schiff bases were dissolved in DMSO to obtain different serial concentrations (0.01–2000 µM). […] Cells were pelleted by centrifugation at 4400 rpm for 10 minutes and the media was removed. Next, 100 µL/well of DMSO were added and the absorbance at 570 nm was recorded. A reference wavelength of 630 nm was used for background subtraction.

[5] = test system: Aspergillus niger ATCC 6275; assay: antimicrobial serial microdilution, A. niger; format: cell-based; settings: Aspergillus niger, ATCC6275; serial microdilution, 96-well plates, 35 °C, 48 h, max 2% DMSO
[6] = test system: S. cerevisiae sod1 mutant (BY4741); assay: growth inhibition (OD600) of sod1 mutant yeast, oxidative effect; format: cell-based, Saccharomyces cerevisiae
Experimental: as §1, §2, §3

[7] = test system: Escherichia coli ATCC 25922; assay: antimicrobial serial microdilution, E. coli; format: cell-based; settings: serial microdilution, 37 °C, 24 h

## Cc1c(N=Cc2ccccc2O)c(=O)n(-c2ccccc2)n1C [Compound 3b, 4-(2-Hydroxybenzylideneamino)-1,5-dimethyl-2-phenyl-1H-pyrazol-3(2H)-one]
[1]
  antioxidant activity detected in the DPPH assay: no significant antioxidant activity
[2]
  MIC: > 200 µg/mL
[3]
  effect on wild-type cells in drop test: unaffected
[4]; Saccharomyces cerevisiae, unit inferred
  IC50: 192 µg/mL (≈ 625 µM)
[4]; unit not given
  NIC Wt: 178.0 ± 2.1
[4]; unit not given, in µg/mL
  MIC Wt: 208.2 ± 4.0
RAW 264.7 cells
  % Live Cells: 19.3 ± 0.2%
[5]
  MIC: > 200 µg/mL
[6]; Saccharomyces cerevisiae, read-out: IC50 sod1
  IC50: 101 µg/mL (≈ 328 µM)
[6]; sod1 mutant BY4741, unit not given
  NIC sod1: 53.3 ± 0.1
[6]; sod1 mutant BY4741, unit not given, in µg/mL
  MIC sod1: 164.1 ± 0.1
[7]; Escherichia coli, ATCC25922
  IC50: 12.1 µg/mL (≈ 39.4 µM)
  MIC: 49.8 ± 5 µg/mL (≈ 162 µM)
[7]; noninhibitory concentration
  NIC E. coli: 2.8 ± 0.5 µg/mL
